Literature values, collected in patent publication US10213443B2, “Tetracycline topical formulations, preparation and uses thereof in treating an ocular condition” (Hovione International Ltd., priority 2012, dated 2019).

How the values were obtained:
[1] = in man
[2] = compared with doxycycline

oral bioavailability [1]: ~100%
SMILES: CN(C)c1ccc(O)c2c1C[C@H]1C[C@H]3[C@H](N(C)C)C(O)=C(C(N)=O)C(=O)[C@@]3(O)C(O)=C1C2=O [Minocycline, minocycline]
phototoxicity [2]: not phototoxic
